Test results: patent US9695155B2, “Herbicidal substituted pyrimidinyloxy benzene compounds” (E. I. DU PONT DE NEMOURS AND COMPANY, priority 2013, dated 2017)

Columns and labels:
field poppy = experiment: Test D preemergence; type: in vivo, Papaver rhoeas; conditions: Papaver rhoeas, pre-emergence, scale 0-100, read-out: Plant response rating, Field Poppy
In short: (§1)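 Visual ratings from 0 (no effect) to 100 (complete control) relative to untreated plants were taken 7–21 days after treatment. Chemicals in a surfactant-containing solvent mixture were applied preemergence to seeds in silt loam, or postemergence to plants 2–18 cm tall (1–4 leaves) grown in a peat-based potting medium.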

field violet = experiment: Test D preemergence; type: in vivo, Viola arvensis; conditions: Viola arvensis, pre-emergence, scale 0-100, read-out: Plant response rating, Field Violet
In short: as §1

deadnettle = experiment: Test D preemergence; type: in vivo, Lamium amplexicaule; conditions: Lamium amplexicaule, pre-emergence, scale 0-100, read-out: Plant response rating, Deadnettle
In short: as §1

kochia [1] = experiment: Test D preemergence; type: in vivo, Kochia scoparia; conditions: Bassia scoparia, pre-emergence, scale 0-100, read-out: Plant response rating, Kochia
In short: as §1

windgrass = experiment: Test D preemergence; type: in vivo, Apera spica-venti; conditions: Apera spica-venti, pre-emergence
In short: as §1

chickweed = experiment: Test D postemergence; type: in vivo, Stellaria media; conditions: Stellaria media, post-emergence, scale 0 to 100 (0 no effect, 100 complete control), read-out: Plant response rating, Chickweed
In short: as §1

Italian ryegrass = experiment: Test D postemergence; type: in vivo, Lolium multiflorum; conditions: Lolium multiflorum, post-emergence, scale 0 to 100 (0 no effect, 100 complete control), read-out: Plant response rating, Ryegrass, Italian
In short: as §1

kochia [2] = experiment: Test D postemergence; type: in vivo, Kochia scoparia; conditions: Bassia scoparia, post-emergence, scale 0 to 100 (0 no effect, 100 complete control), read-out: Plant response rating, Kochia
In short: as §1

oilseed rape = experiment: Test D postemergence; type: in vivo, Brassica napus; conditions: Brassica napus, post-emergence, scale 0 to 100 (0 no effect, 100 complete control), read-out: Plant response rating, Oilseed Rape
In short: as §1

wild mustard = experiment: Test D postemergence; type: in vivo, Sinapis arvensis; conditions: Brassica, post-emergence, scale 0 to 100 (0 no effect, 100 complete control), read-out: Plant response rating, Mustard, Wild
In short: as §1

corn = experiment: Test E postemergence; type: in vivo, Zea mays; conditions: Zea mays, post-emergence
Description: (§2) Seeds of plant species selected from corn (Zea mays), soybean (Glycine max), velvetleaf (Abutilon theophrasti), lambsquarters (Chenopodium album), wild poinsettia (Euphorbia heterophylla), palmer pigweed (Amaranthus palmeri), waterhemp (common waterhemp, Amaranthus rudis), surinam grass (Brachiaria decumbens), large (Lg) crabgrass (Digitaria sanguinalis), Brazilian crabgrass (Digitaria horizontalis), fall panicum (Panicum dichotomiflorum), giant foxtail (Setaria faberii), green foxtail (Setaria viridis), goosegrass (Eleusine indica), johnsongrass (Sorghum halepense), ragweed (common ragweed, Ambrosia elatior), barnyardgrass (Echinochloa crus-galli), sandbur (southern sandbur, Cenchrus echinatus), arrowleaf sida (Sida rhombifolia), Italian ryegrass (Lolium multiflorum), dayflower (Virginia (VA) dayflower, Commelina virginica), field bindweed (Convolvulus arvensis), morningglory (Ipomoea coccinea), nightshade (eastern black nightshade, Solanum ptycanthum), kochia (Kochia scoparia), yellow nutsedge (Cyperus esculentus), cocklebur (common cocklebur, Xanthium strumarium), smartweed (ladysthumb smartweed, and hairy beggarticks (Bidens pilosa), were planted into a silt loam soil and treated preemergence with test chemicals formulated in a non-phytotoxic solvent mixture which included a surfactant.
(§3) At the same time, plants from these crop and weed species and also horseweed (Canada horseweed, Conyza canadensis), waterhemp_RES1, (ALS & Triazine resistant common waterhemp, Amaranthus rudis), and waterhemp_RES2, (ALS & HPPD resistant common waterhemp, Amaranthus rudis) were planted in pots containing Redi-Earth® planting medium (Scotts Company, 14111 Scottslawn Road, Marysville, Ohio 43041) comprising spaghnum peat moss, vermiculite, wetting agent and starter nutrients were treated with postemergence applications of test chemicals formulated in the same manner. Plants ranged in height from 2 to 18 cm for postemergence treatments (1- to 4-leaf stage). Treated plants and controls were maintained in a greenhouse for 14 to 21 days, after which time all species were compared to controls and visually evaluated. Plant response ratings, summarized in Table E, are based on a scale of 0 to 100 where 0 is no effect and 100 is complete control. A dash (-) response means no test result.

wild poinsettia = experiment: Test E postemergence; type: in vivo, Euphorbia heterophylla; conditions: Euphorbia heterophylla, post-emergence, read-out: Plant response rating, Poinsettia, Wild
In short: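 Test chemicals formulated in a non-phytotoxic solvent mixture containing a surfactant were applied preemergence to seeds in silt loam soil or postemergence to plants at the 1- to 4-leaf stage in potting mix. After 14 to 21 days in a greenhouse, injury was visually rated against controls on a 0-100 scale (0 = no effect, 100 = complete control).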

fall panicum = experiment: Test E postemergence; type: in vivo, Panicum dichotomiflorum; conditions: Panicum dichotomiflorum, post-emergence, read-out: Plant response rating, Panicum, Fall
Description: as §2, §3

sandbur = experiment: Test E postemergence; type: in vivo, Cenchrus echinatus; conditions: Cenchrus echinatus, post-emergence, read-out: Plant response rating, Sandbur
Description: as §2, §3

[3] = Postemergence, 31 g ai/ha, scale 0 to 100
[4] = Postemergence, 62 g ai/ha, scale 0 to 100
[5] = Postemergence, 125 g ai/ha, scale 0 to 100
[6] = Postemergence, 250 g ai/ha, scale 0 to 100
[7] = postemergence, 16 g ai/ha, scale 0 to 100, 0 no effect, 100 complete control

N#Cc1cccc(Oc2ncc(Br)cn2)c1-n1cc(C(F)(F)F)cn1 [Compound 59, 3-[(5-bromo-2-pyrimidinyl)oxy]-2-[4-(trifluoromethyl)-1H-pyrazol-1-yl]benzonitrile]
pest or weed control at 31 g/ha (field poppy; 31 g ai/ha): 95% | pest or weed control at 62 g/ha (field poppy; 62 g ai/ha): 100% | pest or weed control at 125 g/ha (field poppy; 125 g ai/ha): 100% | pest or weed control at 250 g/ha (field poppy; 250 g ai/ha): 100% | pest or weed control at 31 g/ha (field violet; 31 g ai/ha): 65% | pest or weed control at 62 g/ha (field violet; 62 g ai/ha): 85% | pest or weed control at 125 g/ha (field violet; 125 g ai/ha): 100% | pest or weed control at 250 g/ha (field violet; 250 g ai/ha): 100% | pest or weed control at 31 g/ha (deadnettle; 31 g ai/ha): 100% | pest or weed control at 62 g/ha (deadnettle; 62 g ai/ha): 100% | pest or weed control at 125 g/ha (deadnettle; 125 g ai/ha): 100% | pest or weed control at 250 g/ha (deadnettle; 250 g ai/ha): 100% | pest or weed control at 31 g/ha (kochia [1]; 31 g ai/ha): 90% | pest or weed control at 62 g/ha (kochia [1]; 62 g ai/ha): 80% | pest or weed control at 125 g/ha (kochia [1]; 125 g ai/ha): 100% | pest or weed control at 250 g/ha (kochia [1]; 250 g ai/ha): 100% | pest or weed control at 31 g/ha (windgrass; 31 g ai/ha, scale 0 (no effect) to 100 (complete control), read-out: Plant response rating, Windgrass): 70% | pest or weed control at 62 g/ha (windgrass; 62 g ai/ha, scale 0-100, read-out: Plant response rating, Windgrass): 100% | pest or weed control at 125 g/ha (windgrass; 125 g ai/ha, scale 0-100, read-out: Plant response rating, Windgrass): 100% | pest or weed control at 250 g/ha (windgrass; 250 g ai/ha, scale 0-100, read-out: Plant response rating, Windgrass): 100% | pest or weed control at 31 g/ha (chickweed; 31 g ai/ha): 70% | pest or weed control at 62 g/ha (chickweed; 62 g ai/ha): 75% | pest or weed control at 125 g/ha (chickweed; 125 g ai/ha): 95% | pest or weed control at 250 g/ha (chickweed; 250 g ai/ha): 95% | pest or weed control at 31 g/ha (Italian ryegrass; 31 g ai/ha): 10% | pest or weed control at 62 g/ha (Italian ryegrass; 62 g ai/ha): 10% | pest or weed control at 125 g/ha (Italian ryegrass; 125 g ai/ha): 40% | pest or weed control at 250 g/ha (Italian ryegrass; 250 g ai/ha): 50% | pest or weed control at 31 g/ha (kochia [2]; 31 g ai/ha): 95% | pest or weed control at 62 g/ha (kochia [2]; 62 g ai/ha): 95% | pest or weed control at 125 g/ha (kochia [2]; 125 g ai/ha): 95% | pest or weed control at 250 g/ha (kochia [2]; 250 g ai/ha): 95% | plant injury at 31 g/ha (oilseed rape; 31 g ai/ha): 65% | plant injury at 62 g/ha (oilseed rape; 62 g ai/ha): 65% | plant injury at 125 g/ha (oilseed rape; 125 g ai/ha): 75% | plant injury at 250 g/ha (oilseed rape; 250 g ai/ha): 100% | pest or weed control at 31 g/ha (wild mustard; 31 g ai/ha): 100% | pest or weed control at 62 g/ha (wild mustard; 62 g ai/ha): 95% | pest or weed control at 125 g/ha (wild mustard; 125 g ai/ha): 100% | pest or weed control at 250 g/ha (wild mustard; 250 g ai/ha): 100% | corn plant response (injury) rating, 0-100 at 31 g/ha (corn; [3]): 5% | corn plant response (injury) rating, 0-100 at 62 g/ha (corn; [4]): 10% | corn plant response (injury) rating, 0-100 at 125 g/ha (corn; [5]): 10% | corn plant response (injury) rating, 0-100 at 250 g/ha (corn; [6]): 15% | corn plant response (injury) rating, 0-100 at 16 g/ha (corn; [7]): 5% | pest or weed control at 31 g/ha (wild poinsettia; [3]): 50% | pest or weed control at 62 g/ha (wild poinsettia; [4]): 60% | pest or weed control at 125 g/ha (wild poinsettia; [5]): 65% | pest or weed control at 250 g/ha (wild poinsettia; [6]): 80% | pest or weed control at 16 g/ha (wild poinsettia; [7]): 50% | pest or weed control at 31 g/ha (fall panicum; [3]): 20% | pest or weed control at 62 g/ha (fall panicum; [4]): 20% | pest or weed control at 125 g/ha (fall panicum; [5]): 30% | pest or weed control at 250 g/ha (fall panicum; [6]): 45% | pest or weed control at 16 g/ha (fall panicum; [7]): 10% | pest or weed control at 31 g/ha (sandbur; [3]): 0% | pest or weed control at 62 g/ha (sandbur; [4]): 0% | pest or weed control at 125 g/ha (sandbur; [5]): 10% | pest or weed control at 250 g/ha (sandbur; [6]): 20% | pest or weed control at 16 g/ha (sandbur; [7]): 0%
